Experimental data: patent publication US20240343733A1, “COMPOUNDS FOR TARGETING DEGRADATION OF IRAK4 PROTEINS” (BIOGEN MA INC., priority 2021, published 2024)

target: T1, IRAK4 (Homo sapiens, UniProt Q9NWZ3); assay: IRAK4 Degradation Assay, HiBiT Method; type: cell-based; conditions: 293T cells expressing HiBiT-tagged IRAK4, 6 hours
T1 construct: 293Tcells expressing HiBiT-tagged IRAK4 were then added into 384-well plates
T1 sequence (Q9NWZ3 1-460): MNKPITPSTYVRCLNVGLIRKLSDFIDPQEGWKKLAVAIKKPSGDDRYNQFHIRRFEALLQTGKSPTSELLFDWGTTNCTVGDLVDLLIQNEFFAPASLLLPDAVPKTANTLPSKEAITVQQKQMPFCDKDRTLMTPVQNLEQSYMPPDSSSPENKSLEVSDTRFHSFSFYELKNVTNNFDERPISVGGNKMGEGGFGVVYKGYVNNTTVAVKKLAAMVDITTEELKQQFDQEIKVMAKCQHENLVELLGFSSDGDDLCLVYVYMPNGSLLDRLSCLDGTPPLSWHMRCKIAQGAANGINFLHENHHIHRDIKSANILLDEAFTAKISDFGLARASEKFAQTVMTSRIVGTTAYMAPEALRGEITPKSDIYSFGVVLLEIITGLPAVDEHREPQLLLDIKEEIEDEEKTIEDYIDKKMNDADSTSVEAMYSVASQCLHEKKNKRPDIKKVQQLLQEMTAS
Summary of the method: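 Luminescent read-out with Nano-Glo HiBiT lytic reagent after 6 h compound exposure at 37 °C. Cells were HiBiT-IRAK4 knock-in 293T (C-terminal tag), 10,000 per well. Compounds ran as 11-point half-log dilutions from […] highest dose, duplicate wells; DMSO served as negative control.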

Structure (SMILES) | DC50 [nM]
CC(C)Oc1cc2nn(C3CCN(C(=O)CC4(O)CCN(c5cc(F)c(C6CCC(=O)NC6=O)cc5F)CC4)CC3)cc2cc1C(=O)Nc1cnn2cccnc12 (stereo not drawn) [Example 57, 2-(1-(2-(1-(4-(2,6-dioxopiperidin-3-yl)-2,5-difluorophenyl)-4-hydroxypiperidin-4-yl)acetyl)piperidin-4-yl)-6-isopropoxy-N-(pyrazolo[1,5-a]pyrimidin-3-yl)-2H-indazole-5-carboxamide] | < 10
CC(C)Oc1cc2nc([C@H]3CC[C@H](CN4CCC(c5ccc6c(c5)oc(=O)n6C5CCC(=O)NC5=O)CC4)CC3)cn2cc1C(=O)Nc1cccn([C@H]2C[C@H]2F)c1=O (stereo partly drawn) [Example 175, 2-((1r,4S)-4-((4-(3-(2,6-dioxopiperidin-3-yl)-2-oxo-2,3-dihydrobenzo[d]oxazol-6-yl)piperidin-1-yl)methyl)cyclohexyl)-N-(1-((1S,2R)-2-fluorocyclopropyl)-2-oxo-1,2-dihydropyridin-3-yl)-7-isopropoxyimidazo[1,2-a]pyridine-6-carboxamide] | < 10
CC(C)Oc1cc2nn([C@H]3CC[C@H](CN4CC[C@@H](c5ccc6c(N7CCC(=O)NC7=O)nn(C)c6c5)[C@H](O)C4)CC3)cc2cc1C(=O)Nc1cccn([C@H]2C[C@H]2F)c1=O [Example 132, 2-((1S,4S)-4-(((3S,4S)-4-(3-(2,4-dioxotetrahydropyrimidin-1(2H)-yl)-1-methyl-1H-indazol-6-yl)-3-hydroxypiperidin-1-yl)methyl)cyclohexyl)-N-(1-((1S,2R)-2-fluorocyclopropyl)-2-oxo-1,2-dihydropyridin-3-yl)-6-isopropoxy-2H-indazole-5-carboxamide] | < 10
CC(C)Oc1cc2nn([C@H]3CC[C@H](CN4CC5(CCN(c6ncc(C7CCC(=O)NC7=O)cc6F)CC5)C4)CC3)cc2cc1C(=O)Nc1cnn2cccnc12 (stereo partly drawn) [Example 117, 2-((1r,4r)-4-((7-(5-(2,6-dioxopiperidin-3-yl)-3-fluoropyridin-2-yl)-2,7-diazaspiro[3.5]nonan-2-yl)methyl)cyclohexyl)-6-isopropoxy-N-(pyrazolo[1,5-a]pyrimidin-3-yl)-2H-indazole-5-carboxamide] | < 10
CC(C)Oc1cc2nn([C@H]3CC[C@H](CN4CCC(c5cc6c(cc5F)c(N5CCC(=O)NC5=O)nn6C)CC4)CC3)cc2cc1C(=O)Nc1cccn(C2CC2)c1=O [Example 198, N-(1-cyclopropyl-2-oxo-1,2-dihydropyridin-3-yl)-2-((r,4r)-4-((4-(3-(2,4-dioxotetrahydropyrimidin-1(2H)-yl)-5-fluoro-1-methyl-1H-indazol-6-yl)piperidin-1-yl)methyl)cyclohexyl)-6-isopropoxy-2H-indazole-5-carboxamide] | < 10
CC(C)Oc1cc2nn(C3CCN(C(=O)CC4(O)CCN(c5ncc(C6CCC(=O)NC6=O)cc5F)CC4)CC3)cc2cc1C(=O)Nc1cccn([C@H]2C[C@H]2F)c1=O (stereo partly drawn) [Example 152, 2-(1-(2-(1-(5-(2,6-dioxopiperidin-3-yl)-3-fluoropyridin-2-yl)-4-hydroxypiperidin-4-yl)acetyl)piperidin-4-yl)-N-(1-((S,2R)-2-fluorocyclopropyl)-2-oxo-1,2-dihydropyridin-3-yl)-6-isopropoxy-2H-indazole-5-carboxamide] | < 10
CC(C)Oc1nc2nc(C3CCC(CN4CCC(c5cc6c(cc5F)c(N5CCC(=O)NC5=O)nn6C)CC4)CC3)cn2cc1C(=O)Nc1cccn([C@H]2C[C@H]2F)c1=O (stereo partly drawn) [Example 197, 2-[4-[[4-[3-(2,4-dioxohexahydropyrimidin-1-yl)-5-fluoro-1-methyl-indazol-6-yl]-1-piperidyl]methyl]cyclohexyl]-N-[1-[(1S,2R)-2-fluorocyclopropyl]-2-oxo-3-pyridyl]-7-isopropoxy-imidazo[1,2-a]pyrimidine-6-carboxamide] | < 10
CC(C)Oc1cc2nc([C@H]3CC[C@H](CN4CC[C@H](c5ccc6c(N7CCC(=O)NC7=O)nn(C)c6c5)[C@H](O)C4)CC3)cn2cc1C(=O)Nc1cnn2cccnc12 [Example 177, 2-((1S,4r)-4-(((3S,4R)-4-(3-(2,4-dioxotetrahydropyrimidin-1(2H)-yl)-1-methyl-1H-indazol-6-yl)-3-hydroxypiperidin-1-yl)methyl)cyclohexyl)-7-isopropoxy-N-(pyrazolo[1,5-a]pyrimidin-3-yl)imidazo[1,2-a]pyridine-6-carboxamide] | < 10
CC(C)Oc1cc2nn([C@H]3CC[C@H](CN4CC5(C4)CN(c4ncc(C6CCC(=O)NC6=O)cc4F)C5)CC3)cc2cc1C(=O)Nc1cccn([C@H]2C[C@H]2F)c1=O (stereo partly drawn) [Example 126, 2-((1r,4S)-4-((6-(5-(2,6-dioxopiperidin-3-yl)-3-fluoropyridin-2-yl)-2,6-diazaspiro[3.3]heptan-2-yl)methyl)cyclohexyl)-N-(1-((1S,2R)-2-fluorocyclopropyl)-2-oxo-1,2-dihydropyridin-3-yl)-6-isopropoxy-2H-indazole-5-carboxamide] | < 10
CC(C)Oc1cc2nn([C@H]3CC[C@H](CN4CCC(c5ccc6c(c5)n(C)c(=O)n6C5CCC(=O)NC5=O)CC4)CC3)cc2cc1C(=O)Nc1cccn([C@H]2C[C@H]2F)c1=O (stereo partly drawn) [Example 137, 2-((1r,4S)-4-((4-(1-(2,6-dioxopiperidin-3-yl)-3-methyl-2-oxo-2,3-dihydro-1H-benzo[d]imidazol-5-yl)piperidin-1-yl)methyl)cyclohexyl)-N-(1-((1S,2R)-2-fluorocyclopropyl)-2-oxo-1,2-dihydropyridin-3-yl)-6-isopropoxy-2H-indazole-5-carboxamide] | < 10
CC(C)Oc1cc2nc([C@H]3CC[C@H](CN4CC5(CCN(c6ncc(N7CCC(=O)NC7=O)cc6F)CC5)C4)CC3)cn2cc1C(=O)Nc1cccn([C@H]2C[C@H]2F)c1=O [Example 179, 2-((1r,4S)-4-((7-(5-(2,4-dioxotetrahydropyrimidin-1(2H)-yl)-3-fluoropyridin-2-yl)-2,7-diazaspiro[3.5]nonan-2-yl)methyl)cyclohexyl)-N-(1-((1S,2R)-2-fluorocyclopropyl)-2-oxo-1,2-dihydropyridin-3-yl)-7-isopropoxyimidazo[1,2-a]pyridine-6-carboxamide] | < 10

Continued, values first:

DC50 [nM] | Structure (SMILES)
100 to 500 | CC(C)Oc1cc2nc([C@H]3CC[C@H](CN4CCC(c5ccc(C6CCC(=O)NC6=O)cc5)C(F)(F)C4)CC3)cn2cc1C(=O)Nc1cccc(C(F)F)n1 (stereo partly drawn) [Example 25, N-[6-(difluoromethyl)-2-pyridyl]-2-[4-[[4-[4-(2,6-dioxo-3-piperidyl)phenyl]-3,3-difluoro-1-piperidyl]methyl]cyclohexyl]-7-isopropoxy-imidazo[1,2-a]pyridine-6-carboxamide]
10 to 100 | CC(C)Oc1cc2nc(C3CCN(CC(=O)N4CCC(c5ccc(NC6CCC(=O)NC6=O)cc5)CC4)CC3)cn2cc1C(=O)Nc1cccc(C(F)(F)F)n1 (stereo not drawn) [Example 103, 2-(1-(2-(4-(4-((2,6-dioxopiperidin-3-yl)amino)phenyl)piperidin-1-yl)-2-oxoethyl)piperidin-4-yl)-7-isopropoxy-N-(6-(trifluoromethyl)pyridin-2-yl)imidazo[1,2-a]pyridine-6-carboxamide]
10 to 100 | CC(C)Oc1cc2nc(C3CCN(C(=O)CN4CCC(c5ccc(NC6CCC(=O)NC6=O)nc5)CC4)CC3)cn2cc1C(=O)Nc1cccc(C(F)F)n1 (stereo not drawn) [Example 86, N-[6-(difluoromethyl)-2-pyridyl]-2-[1-[2-[4-[6-[(2,6-dioxo-3-piperidyl)amino]-3-pyridyl]-1-piperidyl]acetyl]-4-piperidyl]-7-isopropoxy-imidazo[1,2-a]pyridine-6-carboxamide]
10 to 100 | CC(C)Oc1cc2nc([C@H]3CC[C@H](CN4CCC(c5cccc6c5n(C)c(=O)n6C5CCC(=O)NC5=O)CC4)CC3)cn2cc1C(=O)Nc1cccc(C(F)F)n1 (stereo partly drawn) [Example 17, N-[6-(difluoromethyl)-2-pyridyl]-2-[4-[[4-[1-(2,6-dioxo-3-piperidyl)-3-methyl-2-oxo-benzimidazol-4-yl]-1-piperidyl]methyl]cyclohexyl]-7-isopropoxy-imidazo[1,2-a]pyridine-6-carboxamide]
10 to 100 | CC(C)Oc1cc2nc([C@H]3CC[C@H](CN4CCC(c5ccc(NC6CCC(=O)NC6=O)cc5F)CC4)CC3)cn2cc1C(=O)Nc1cccc(C(F)F)n1 (stereo partly drawn) [Example 18, N-[6-(difluoromethyl)-2-pyridyl]-2-[4-[[4-[4-[(2,6-dioxo-3-piperidyl)amino]-2-fluoro-phenyl]-1-piperidyl]methyl]cyclohexyl]-7-isopropoxy-imidazo[1,2-a]pyridine-6-carboxamide]
10 to 100 | CC(C)Oc1cc2nc(C3CCN(C(=O)CN4CCC(c5cnc(NC6CCC(=O)NC6=O)nc5)CC4)CC3)cn2cc1C(=O)Nc1cccc(C(F)F)n1 (stereo not drawn) [Example 85, N-[6-(difluoromethyl)-2-pyridyl]-2-[1-[2-[4-[2-[(2,6-dioxo-3-piperidyl)amino]pyrimidin-5-yl]-1-piperidyl]acetyl]-4-piperidyl]-7-isopropoxy-imidazo[1,2-a]pyridine-6-carboxamide]
< 10 | CC(C)Oc1cc2nc([C@H]3CC[C@H](CN4CCC(c5ccc6c(c5)n(C)c(=O)n6C5CCC(=O)NC5=O)CC4)CC3)cn2cc1C(=O)Nc1cccc(C(F)F)n1 (stereo partly drawn) [Example 19, N-[6-(difluoromethyl)-2-pyridyl]-2-[4-[[4-[1-(2,6-dioxo-3-piperidyl)-3-methyl-2-oxo-benzimidazol-5-yl]-1-piperidyl]methyl]cyclohexyl]-7-isopropoxy-imidazo[1,2-a]pyridine-6-carboxamide]
